{
  "source": "patent US20070264200A1",
  "about": "“Mouse MRI for drug screening” (priority 2005, published 2007)",
  "key": {"[1]": {"conditions": "humans; cited from earlier work"}, "[2]": {"conditions": "mice, IV; cited from earlier work"}, "[3]": {"conditions": "rats, IV; cited from earlier work"}, "[4]": {"assay": "Physiological monitoring (SaO2, heart rate, respiratory rate, ECG) during MRI, pre versus post contrast agent", "type": "in vivo", "conditions": "for changes in SaO2, HR, RR or ECG parameters (ST, T wave morphology, rhythm), pre versus post contrast agent: up to 2 hours after contrast agent", "excerpt": "Wild type C57BL/6 mice 6-10 months of age (25-30 gr) were used in all experiments. Since variations in physiological processes can influence the MRI signal in the brain, various monitoring devices were used while the mouse was being imaged. Heart rate, respiratory rate and SaO2 were continuously monitored using pulse oximetry (Model V33304, Sergivet). The probe was attached to the lower abdomen. A rectal temperature was continuously monitored with a thermestor (YSI Precision Thermometer 4000A).\nECG was monitored in a physiogard (SM 785, Brucker) by using subcutaneous silver electrodes from the front limbs and the reference electrode placed at the right posterior limb.\nComparisons were made within the groups pre with post contrast agent up to 2 hours after IV (feridex or gadodiamide) or IP GD (10 mmol/kg) (Table 1).\nThus, 10 mmol/kg was identified as the optimum dose of GD, and this dose was used for all further experiment unless otherwise indicated. […] Since the goal is to keep scan time as short as possible, in order to minimize morbidity and mortality, a 45 minutes time point was identified as the optimum post-contrast time interval."}, "[5]": {"conditions": "IP 15 mmol/kg, individual mice with toxicity, listed as GD"}},
  "note": "Values joined by “and” are separate entries in the source; they are usually repeats but may differ in a detail not shown here. Equal entries are not always repeated. Where two headings read alike, the source gives them in different places.",
  "data": [
    {"molecule": "CNC(=O)CN(CCN(CCN(CC(=O)[O-])CC(=O)NC)CC(=O)[O-])CC(=O)[O-].[Gd+3]", "note": "[gadodiamide]", "values": [
      {"measurement": "elimination half-life", "setting": "[1]", "value": "approximately 1.5 hours"},
      {"measurement": "elimination half-life", "setting": "[2]", "value": "5 to 6", "unit": "min"},
      {"measurement": "elimination half-life", "setting": "[3]", "value": "about 20 minutes"},
      {"measurement": "changes in SaO2, HR, RR or ECG parameters (ST, T wave morphology, rhythm), pre versus post contrast agent", "setting": "[4]; IP 10 mmol/kg", "value": "No significant changes"},
      {"measurement": "RR (respiratory rate)", "setting": "[4]; [5]", "value": "100 and 110"},
      {"measurement": "SaO2", "setting": "[4]; [5]", "value": "72 and 65"},
      {"measurement": "toxicity (significant changes in vital signs)", "setting": "[4]; IP 15 mmol/kg, two mice, procedure aborted", "value": "caused toxicity"},
      {"measurement": "changes in SaO2, HR, RR or ECG parameters (ST, T wave morphology, rhythm), pre versus post contrast agent", "setting": "[4]; IV", "value": "No significant changes"}
    ]}
  ]
}
